Assay [1] has as its system osteosarcoma cell line HOS. Nature of the assay: Calcein AM cytotoxicity assay. The assay is classed as cell-based, human. The note with it: Homo sapiens, 72 hours. The procedure, abridged: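 Cells seeded at 2.500-30.000 per well, pre-incubated 24 h, then exposed 72 h at 37 °C to six 3-fold dilutions (top 166.6 μM), in triplicate. Calcein AM added to 1 μg/ml for 1 h; fluorescence gives growth inhibition, GI50 taken from dose-response curves.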

For assay [2], the system named is breast carcinoma cell line MCF-7. Description: Calcein AM cytotoxicity assay. The assay is classed as cell-based, human. To be noted: Homo sapiens, MCF7, 72 hours.
Assay [3] deals with NIH-3T3 (fibroblasts). Nature of the assay: Calcein AM cytotoxicity assay. The assay is classed as cell-based, Mouse. The note with it: Mus musculus, NIH3T3, 72 hours. The gist of the method: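 Cells seeded at 2.500-30.000 per well, pre-incubated 24 hours, then exposed to compound (usually six 3-fold dilutions, triplicates) for 72 hours at 37° C, 5% CO2; NIH-3T3 grown in DMEM with 10% fetal calf serum. Calcein AM added at 1 μg/ml final, fluorescence read after 1 hour. GI calculated as blank-corrected fluorescence relative to untreated control.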

For assay [4], the system named is Amaranthus caudatus cotyledon/hypocotyl explants. Description: Amaranthus bioassay (betacyanin content). The assay is classed as cell-based, Amaranthus caudatus var. atropurpurea. The note with it: at the concentration with highest activity, relative to 10^−5 M kinetin. The procedure, abridged: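 Etiolated A. caudatus cotyledon/hypocotyl explants (72 h seedlings, roots removed) incubated 48 h at 25 °C in darkness on medium with phosphate buffer pH 6.8, tyrosine and test compound. Betacyanin extracted in acetic acid, quantified as A537−A620.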

Results on 14 compounds are retold here after patent US8222260B2, “Substituted 6-anilinopurine derivatives as inhibitors of cytokinin oxidase/dehydrogenase and preparations containing these derivatives” (Univerzita Palackego V Olomouci, priority 2007, dated 2012).

For `Clc1nc(Nc2ccccc2)c2[nH]cnc2n1` [Compound 1, 2-Chloro-6-anilinopurine], the GI50 in assay [1], in assay [2] and in assay [3] was greater than 167 µM in each case.

For `Clc1cccc(Nc2nc(Cl)nc3nc[nH]c23)c1` [Compound 3, 2-Chloro-6-(3-chloroanilino)purine], the GI50 in assay [1], in assay [2] and in assay [3] was greater than 167 µM throughout. For the same compound, the “Activity (%) [10^−5 mol · l^−1 K = 100%]” value in assay [4] is listed as 166%.

For the compound `Clc1ccc(Nc2nc(Cl)nc3[nH]cnc23)cc1` [Compound 4], the 50% growth inhibitory concentration (GI50) in assay [1], in assay [2] and in assay [3] was greater than 167 µM in each case. The “Activity (%) [10^−5 mol · l^−1 K = 100%]” value in assay [4] is recorded as 107%.

With `Fc1cccc(Nc2nc(Cl)nc3nc[nH]c23)c1` [Compound 6, 2-Chloro-6-(3-fluoroanilino)purine], the GI50 in assay [1], in assay [2] and in assay [3] was greater than 167 µM each time. Also, the “Activity (%) [10^−5 mol · l^−1 K = 100%]” value in assay [4] was 120%.

Consider `Oc1cccc(Nc2nc(Cl)nc3nc[nH]c23)c1` [Compound 9, 2-Chloro-6-(3-hydroxyanilino)purine], for which the GI50 in assay [1], in assay [2] and in assay [3] was greater than 167 µM each time. The “Activity (%) [10^−5 mol · l^−1 K = 100%]” value in assay [4] is 115.4%.

Consider `COc1cccc(Nc2nc(Cl)nc3nc[nH]c23)c1` [Compound 12, 2-Chloro-6-(3-methoxyanilino)purine], for which the GI50 in assay [1], in assay [2] and in assay [3] was greater than 167 µM in each case. The “Activity (%) [10^−5 mol · l^−1 K = 100%]” value in assay [4] was 132.3%.

Regarding `Fc1nc(Nc2ccccc2)c2nc[nH]c2n1` [Compound 40], the GI50 in assay [1], in assay [2] and in assay [3] was greater than 167 µM throughout. Besides, in assay [4], the “Activity (%) [10^−5 mol · l^−1 K = 100%]” value is on record as 107%.

Consider `Fc1nc(Nc2cccc(Cl)c2)c2nc[nH]c2n1` [Compound 42], for which the concentration for 50% growth inhibition (GI50) in assay [1], in assay [2] and in assay [3] was greater than 167 µM each time. Besides, in assay [4], the “Activity (%) [10^−5 mol · l^−1 K = 100%]” value was determined as 121%.

On to `Oc1cccc(Nc2nc(F)nc3[nH]cnc23)c1` [Compound 48], for which the GI50 in assay [1], in assay [2] and in assay [3] was greater than 167 µM in each case. Also, the “Activity (%) [10^−5 mol · l^−1 K = 100%]” value in assay [4] is on record as 100.3%.

As for `COc1cccc(Nc2nc(F)nc3nc[nH]c23)c1` [Compound 51, 2-Fluoro-6-(3-methoxyanilino)purine], the 50% growth inhibitory concentration (GI50) in assay [1], in assay [2] and in assay [3] was greater than 167 µM in each case. The “Activity (%) [10^−5 mol · l^−1 K = 100%]” value in assay [4] worked out at 117.2%.

On to `Nc1nc(Nc2cccc(Cl)c2)c2nc[nH]c2n1` [Compound 66], for which the GI50 in assay [1], in assay [2] and in assay [3] was greater than 167 µM throughout. Besides, the “Activity (%) [10^−5 mol · l^−1 K = 100%]” value in assay [4] is recorded as 122%.

As for `Nc1nc(Nc2cccc(O)c2)c2nc[nH]c2n1` [Compound 72], the 50% growth inhibitory concentration (GI50) in assay [1], in assay [2] and in assay [3] was greater than 167 µM each time. Further, the “Activity (%) [10^−5 mol · l^−1 K = 100%]” value in assay [4] stood at 119.8%.

In the case of `Fc1cccc(Nc2nc(S)nc3[nH]cnc23)c1` [Compound 83], the concentration for 50% growth inhibition (GI50) in assay [1], in assay [2] and in assay [3] was greater than 167 µM throughout. Moreover, in assay [4], the “Activity (%) [10^−5 mol · l^−1 K = 100%]” value came out at 133.5%.

Consider `c1coc(CNc2ncnc3nc[nH]c23)c1` [Kinetin, 6-furfurylaminopurine, reference compound], for which the 50% growth inhibitory concentration (GI50) in assay [1], in assay [2] and in assay [3] was greater than 167 µM throughout. Also, the “Activity (%) [10^−5 mol · l^−1 K = 100%]” value in assay [4] was found to be 100%.

For orientation: GI50 means the concentration that inhibits growth by half.
